Reference: US20040209273A1, “Plant stress-regulated genes” (priority 2001, published 2004)

Assays:
[1] = system: tobacco leaf discs; assay: Ion leakage (solute conductance) from tobacco leaf discs floated on methyl viologen solutions; parameters: species or system Nicotiana tabacum
Experimental: Nicotiana tabacum cv. Petit Havana SR1 plants were grown in a controlled environment chamber (Weiss Technik, Lindenstruth, DE) under 100 μmol/m^2/s light intensity (photosynthetically active radiation), 16 hours light/8 hours dark regime, relative humidity of 70% and constant temperature of 24° C. The most expanded leaves (11-12 cm long×7-8 cm wide) from five week old plants were used for experiments with methyl viologen.
Leaf discs (1 cm in diameter) were punched with a cork-bore from the interveinal part of the leaf. Three leaf discs, each originating from different plants, were floated with the abaxial side up on 12 ml of methyl viologen solution in nanopure water or water solely in the case of control. Treatments were performed in controlled environment chambers, under the same conditions as for growth, except as otherwise indicated. Leaf discs for RNA extraction were drained on paper, rapidly frozen in liquid nitrogen and stored at −70° C. Ion leakage from the leaf discs was measured as conductivity of the solution using a conductivity meter (Consort, Turnhout, BE)
As a first step in studying adaptive responses to oxidative stress in tobacco, we wanted to establish an experimental system in which low doses of oxidant would induce adaptation to higher doses of the same compound. MV, a redox-active compound that enhances superoxide radical (O2 ? ) formation mainly in chloroplasts, was used as an oxidant. In order to determine MV concentrations suited for the induction of adaptation and for the subsequent oxidative stress treatment, sensitivity of tobacco to MV was first determined. Leaf discs were floated on solutions with different concentrations of MV and ion leakage was monitored by measuring the solute conductance. If not scavenged, superoxide generated by MV is converted through redox-reactions into other active oxygen species (AOS) such as hydroxyl radicals that interact with biological molecules and cause oxidative damage (Halliwell and Gutteridge, 1989). Peroxidation of membrane lipids results in loss of membrane integrity that is reflected by enhanced cellular ion leakage. […] These concentrations thus seemed most suitable for inducing adaptation to MV.
To test whether exposure to sublethal amounts of MV enhances tolerance to higher, normally toxic amounts of this compound, tobacco leaf discs were floated on solutions with less than 0.2 μM MV and subsequently transferred to solutions within the molar range of 0.2-2 μM. Increase in tolerance was assessed by measuring the solute conductance. Leaf discs pretreated with water were taken as nonadapted controls. […]

[2] = system: Gpx, SodCc and differential-display genes (mRNA); assay: Northern analysis of gene expression in leaf discs during MV pretreatment and treatment; parameters: species or system Nicotiana tabacum
Experimental: Total RNA was extracted from frozen leaf discs using TRIzol™ Reagent (Life Technologies, Paisley, UK) according to the manufacturer's instructions. RNA samples were treated prior to electrophoresis and resolved on 1% agarose gel as described by Shaul et al. (1996). The RNA was blotted on nylon membrane (Hybond-N, Amersham International plc., Buckinghamshire, UK or Qiabrane, Qiagen GmbH, Hilden, DE) by capillary blotting (Maniatis et al., 1982). RNA was fixed to the membrane by cross-linking at 150 mJ/cm^2. To check the quality of RNA prior to hybridization, membranes were incubated for 15 minutes in 5% acetic acid and stained for five minutes in 0.04% methylene blue in 0.5 M sodium acetate (pH 5.2), and rinsed with water. After the staining and quality check, membranes were destained in 0.1×SSC (Maniatis et al., 1982) containing 0.5% SDS (w/v). Membranes were hybridized at 65° C. in 50% formamide, 5×SSC, 0.5% SDS and 10% dextran sulphate. ^32P-labeled RNA probes corresponding to the cDNA fragments of GPx (Criqui et al., 1992), SodCc (PSOD 3-5′ fragment; Tsang et al., 1991), SodB (pSOD 2-5′ fragment; Tsang et al., 1991), Cat1 (pCat1A; Willekens et al., 1994), and N. tabacum actin (pRVA12; Aventis Crop Science, BE) were generated by the Riboprobe® System (Promega Corp., Madison, Wis., USA). RNA probes corresponding to cDNA fragments isolated by differential display and cloned into pGEM®-T vector (Promega Corp., Madison, Wis., USA) were generated according to the same protocol. Membranes were washed at 65° C. for 15 minutes each in 3×SSC (Maniatis et al., 1982), 1×SSC and 0.1×SSC (stringent washing) containing 0.5% SDS (w/v). Membranes were exposed to the Storage Phosphor Screen and scanned with the Phosphorlmager 445 SI (Molecular Dynamics Inc., Sunnyvale, Calif., USA). Membranes were reused after stripping of the probe in 0.1×SSC at 85° C. Removal of the probe was checked by autoradiography.
mRNA levels of several antioxidant genes were tested by Northern analysis during the pretreatment and the treatment. […]

[3] = system: tobacco leaf disc mRNA; assay: Differential mRNA display of MV-pretreated versus water-pretreated leaf discs; parameters: species or system Nicotiana tabacum; settings: 0.1 μM MV for 17 hours; estimated from sequencing data
Experimental: Total RNA was treated with DNaseI prior to RT-PCR according to the manufacturer's instructions (Life Technologies, Paisley, UK). Alternatively, up to 20 μg of total RNA was incubated with 5 U DNaseI, 18 U Recombinant Ribonuclease Inhibitor (Promega Corp., Madison, Wis., USA), 1 mM DTT in 80 μl of 10 mM Tris-Cl, pH 8.3, 50 mMKCl and 1.5 mM MgCl2 for 30 minutes at 37° C. RNA was extracted with phenol/CHCl3 (3:1), ethanol precipitated and dissolved in diethyl pyrocarbonate-treated water. mRNA differential display was performed with the RNA map™ kit (Gene Hunter Corp., Nashville, Tenn., USA), AmliTaq DNA polymerase (Perkin-Elmer, Branchburg, N.J., USA) and [^33P] dATP (0.2 μl/20 μl PCR reaction of 111 000 GBq/mmol; Isotopchim, Ganagobie-Peyruis, FR). 3.5 μl of each PCR reaction was mixed with 2 μl of loading dye and denatured at 95° C. for five minutes prior to loading onto 6% DNA sequencing gel. […]
In order to identify which genes other than those encoding antioxidant enzymes would show altered mRNA levels during oxidative stress adaptation, reference samples placed in water for 17 hours, or samples pretreated with 0.1 μM MV for 17 hours (adapted leaf discs), were compared by differential mRNA display. […] Expression of 16 genes was further analyzed by Northern analysis with RNA from an independent experiment. […]

[4] = system: A. thaliana plants; assay: Growth of Arabidopsis seedlings on plates containing methyl viologen; assay type: in vivo, Arabidopsis thaliana; settings: 2 μM MV in ½ MS, 1% sucrose; three to four weeks; transformed lines and C24 control
Experimental: Eighty plants of an F2-progeny of the transgenic line WV4 (construct pWRKY-VP16-pGSJ780A) were grown on MS+Kanamycine for two and a half weeks. Fifteen kanamycine-resistant seedlings were transferred to plates containing ½ MS, 1% sucrose and 2 μM methyl viologen (paraquat) or to plates containing ½ MS, 1% sucrose for the controls.
Wild-type Arabidopsis plants were treated in a similar way (except for selection on Kanamycine).
Performance of plants was followed and pictures were taken after approximately three weeks.
Segregating populations (F2) of A. thaliana plants (C 24) transformed with WRKY11 under control of the 35S promoter (35S—WRKY11) or with WRKY11 fused to the VP16 activation domain under control of the 35S promoter (35S—WRKY11-VP16) were grown on MS media with kanamycine. Approximately three-week-old seedlings resistant to kanamycine from 3:1 segregating lines (WV4 and WV9 WRKY11-VP16 transformed lines) were transferred to the solid media containing ½ MS salts, 1% sucrose and 2 μM methyl viologen (MV) or on plates without MV. As control plants, untransformed A. thaliana plants were used (C24). After three to four weeks, phenotypic differences were assessed.

In the case of C[n+]1ccc(-c2cc[n+](C)cc2)cc1 [MV, methyl viologen], the “leaf damage measured as solute conductance versus applied dose” value ([1]; 0.2-2 μM MV) is reported as “clearly correlated with the applied dose of MV”, the “visible damage of leaf discs” value ([1]; concentrations lower than 0.2 μM MV, after 42 hours of incubation) is reported as “no visible damage” and the “increase in ion leakage from the leaf discs in comparison with water-treated controls” value ([1]; concentrations lower than 0.2 μM MV, up to 42 hours of incubation) is reported as “very little increase in ion leakage”. The “protection against MV compared to water-pretreated control samples (solute conductance)” value ([1]; pretreated with 0.1 μM MV for 17 hours, then treated with 1 μM MV for 11 hours, mean) was 40%, the “expression of all Table 2 genes except DIOX” value ([2]; after 12 hours of the pretreatment with 0.1 μM MV) was “induced” and the “expression of all Table 2 genes except DIOX” value ([2]; during the treatment with 1 μM MV, induction started within the first three hours) was “further induced”. The “Gpx and SodCc mRNA level” value ([2]; pretreatment with 0.1 μM MV) was “persistent increase”, the “total number of genes with altered expression after MV pretreatment” value [3] was roughly 170 and the “growth of plants on plates containing MV” value [4] was “retarded”.
